Data taken from EP4603105A1, “PHARMACEUTICAL COMPOSITION CONTAINING CYCLIC COMPOUND HAVING SELECTIVE KRAS INHIBITORY EFFECT AGAINST HRAS AND NRAS” (CHUGAI SEIYAKU KABUSHIKI KAISHA, priority 2022, dated 2024).
Where a SMILES comes first, the peptide text is derived from it. Bridges are numbered along the chain shown (N, C = ends). [ ]: non-standard residue; d: D form. The star is where a group is joined. hPhe(3-Cl-4-CF3) = N[C@@H](CCc1ccc(C(F)(F)F)c(Cl)c1)C(=O)O; NPrPhe(4-CF3) = CCCN[C@@H](Cc1ccc(C(F)(F)F)cc1)C(=O)O; NEtPhe(4-Me) = CCN[C@@H](Cc1ccc(C)cc1)C(=O)O; NMeGly(cPent) = CN[C@H](C(=O)O)C1CCCC1; NMeD = CN[C@@H](CC(=O)O)C(=O)O; NMeL = CN[C@@H](CC(C)C)C(=O)O; NMeV = CN[C@H](C(=O)O)C(C)C; Morpholide = C1CN(*)CCO1; NMeA = CN[C@@H](C)C(=O)O; Ac5c = NC1(C(=O)O)CCCC1; Aze = O=C(O)[C@@H]1CCN1; Ac4c = NC1(C(=O)O)CCC1; Sar = CNCC(=O)O

Key:
[1] = biological target: GDP-bound NRAS wild-type protein (Homo sapiens, UniProt P01111); test: Binding to NRAS by surface plasmon resonance (SPR), KD and KD ratio to KRAS
Sequence of GDP-bound NRAS wild-type protein (P01111 whole entry): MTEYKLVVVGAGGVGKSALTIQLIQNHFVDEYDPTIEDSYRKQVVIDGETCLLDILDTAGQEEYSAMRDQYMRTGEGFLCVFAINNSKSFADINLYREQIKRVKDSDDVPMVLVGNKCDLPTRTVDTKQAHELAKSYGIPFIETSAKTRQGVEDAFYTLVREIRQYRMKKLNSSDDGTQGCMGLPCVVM
Summary of the method: (§1)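 GDP-bound biotin-Avi RAS captured at ~100–300 RU, 30°C, pH 7.4 HBS containing 10 µM GDP, 10 mM MgCl2, 1 mM DTT, 0.01% Tween 20 and 4% DMSO. KD by 1:1 fitting.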

HRAS wild-type protein = HRAS wild-type protein (Homo sapiens, UniProt P01112); test: Binding to HRAS by surface plasmon resonance (SPR), KD and KD ratio to KRAS
Sequence of HRAS wild-type protein (P01112 whole entry): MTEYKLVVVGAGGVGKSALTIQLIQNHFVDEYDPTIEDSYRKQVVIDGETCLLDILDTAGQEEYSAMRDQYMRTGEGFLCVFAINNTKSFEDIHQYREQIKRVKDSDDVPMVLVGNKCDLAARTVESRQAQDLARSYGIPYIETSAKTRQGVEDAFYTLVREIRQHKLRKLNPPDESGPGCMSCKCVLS
Summary of the method: as §1

[2] = test system: human lung cancer strain NCI-H441; type: cell-based
Summary of the method: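 Readout: […] after the ATP-based reagent. Compound: serial dilutions in dimethyl sulfoxide.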

[3] = ratio of the KD value with respect to GDP-bound NRAS wild-type protein to the KD value with respect to KRAS
[4] = ratio of the KD value with respect to HRAS wild-type protein to the KD value with respect to KRAS
[5] = ratio of KD for GDP-bound NRAS wild-type protein to KD for KRAS
[6] = ratio of KD for HRAS wild-type protein to KD for KRAS

SMILES | NRAS /KRAS [1, 3] | HRAS /KRAS (HRAS wild-type protein; [4]) | IC50 [2] [nM] | NRAS /KRAS [1, 5] | HRAS /KRAS (HRAS wild-type protein; [6])
CCCN1C(=O)CN(C)C(=O)CNC(=O)[C@H]([C@@H](C)CC)NC(=O)[C@H](CC(C)C)N(C)C(=O)C[C@@H](C(=O)N(C)C)N(C)C(=O)[C@H](C2CCCC2)N(C)C(=O)C2(CCC2)NC(=O)[C@@H]2CCCN2C(=O)[C@H](CCc2ccc(C(F)(F)F)c(Cl)c2)NC(=O)CN(C)C(=O)[C@@H]1Cc1ccc(C(F)(F)F)cc1 [PP0418] ([NMeL]IG[Sar][NPrPhe(4-CF3)][Sar][hPhe(3-Cl-4-CF3)]P[Ac4c][NMeGly(cPent)][NMeD]-NMe2; lactam N-11) | B (a compound having 3 or more and less than 10 is denoted as B) | C (A compound having a KD ratio of 0.1 or more and less than 3 is denoted as C) | 4.6 |  | 
CCO[C@@H]1C[C@H]2C(=O)NC3(CCCC3)C(=O)N(C)[C@@H](C3CCCC3)C(=O)N(C)[C@H](C(=O)N(C)C)CC(=O)N(C)[C@@H](CC)C(=O)N[C@@H]([C@@H](C)CC)C(=O)N(C)CC(=O)N(C)[C@H]3C[C@@H](C)CCN(C3=O)[C@@H](Cc3ccc(C(F)(F)F)cc3)C(=O)N(C)CC(=O)N[C@@H](CCc3cc(F)c(C(F)(F)F)c(F)c3)C(=O)N2C1 [PP1022] |  |  | 17.5 | C (A compound having a KD ratio of 0.1 or more and less than 3 is denoted as C) | B (a compound having 3 or more and less than 10 is denoted as B)
CCO[C@@H]1C[C@H]2C(=O)NC3(CCC3)C(=O)N(C)[C@@H](C3CCCC3)C(=O)N(C)[C@H](C(=O)N(C)C)CC(=O)N(C)[C@@H](CC)C(=O)N[C@@H]([C@@H](C)CC)C(=O)N(C)CC(=O)N(C)[C@H]3CCCCN(C3=O)[C@@H](Cc3ccc(C(F)(F)F)cc3)C(=O)N(C)CC(=O)N[C@@H](CCc3ccc4sccc4c3)C(=O)N2C1 [PP0887] |  |  | 19 | C (A compound having a KD ratio of 0.1 or more and less than 3 is denoted as C) | C (A compound having a KD ratio of 0.1 or more and less than 3 is denoted as C)
C#CC[C@H]1C(=O)N[C@@H]([C@@H](C)CC)C(=O)N(C)CC(=O)N(C)[C@H]2C/C=C\CCN(C2=O)[C@@H](Cc2ccc(C(F)(F)F)cc2)C(=O)N(C)CC(=O)N[C@@H](CCc2ccc(C(F)(F)F)c(OC)c2)C(=O)N2C[C@H](OCC)C[C@H]2C(=O)NC2(CC(C)(C)C2)C(=O)N(C)[C@@H](C2CCCC2)C(=O)N(C)[C@H](C(=O)N(C)CC)CC(=O)N1C [PP2051] | A (a compound having 10 or more and less than 20 is denoted as A) | A (a compound having 10 or more and less than 20 is denoted as A) | 6.9 |  | 
CC[C@H](C)[C@@H]1NC(=O)[C@H](CC(C)C)N(C)C(=O)C[C@@H](C(=O)N2CCOCC2)N(C)C(=O)[C@H](C(C)C)N(C)C(=O)C2(CCCC2)NC(=O)[C@@H]2CCCN2C(=O)[C@H](CCc2ccc(C(F)(F)F)c(Cl)c2)NC(=O)CN(C)C(=O)[C@H](Cc2ccc(C)cc2)N(CC)C(=O)[C@@H]2CCN2C(=O)[C@H](C)N(C)C1=O [PP0015] ([NMeL]I[NMeA][Aze][NEtPhe(4-Me)][Sar][hPhe(3-Cl-4-CF3)]P[Ac5c][NMeV][NMeD]-Morpholide; lactam N-11) |  |  | 24.5 | C (A compound having a KD ratio of 0.1 or more and less than 3 is denoted as C) | C (A compound having a KD ratio of 0.1 or more and less than 3 is denoted as C)
CCO[C@@H]1C[C@H]2C(=O)NC3(CCC3)C(=O)N(C)[C@@H](C(CC)CC)C(=O)N(C)[C@H](C(=O)N3CCCC3)CC(=O)N(C)[C@H]3CCCCC/C=C/c4ccc(cc4)C[C@@H](C(=O)N(C)CC(=O)N[C@@H](CCc4ccc(Cl)c(Cl)c4)C(=O)N2C1)N1CC/C=C\C[C@@H](C1=O)N(C)C(=O)CN(C)C(=O)[C@H]([C@@H](C)CC)NC3=O [PP3052] |  |  | 27.6 | AA (a compound having 20 or more is denoted as AA) | A (a compound having 10 or more and less than 20 is denoted as A)
CCO[C@@H]1C[C@H]2C(=O)NC3(CCC3)C(=O)N(C)[C@@H](C3CCCC3)C(=O)N(C)[C@H](C(=O)N3CCOCC3)CC(=O)N(C)[C@@H](CC(C)C)C(=O)N[C@@H]([C@@H](C)CC)C(=O)N(C)CC(=O)N(C)[C@H]3CCCCCN(C3=O)[C@@H](Cc3ccc(F)cc3Cl)C(=O)N(C)CC(=O)N[C@@H](CCc3cc(F)c(C(F)(F)F)c(F)c3)C(=O)N2C1 [PP0918] |  |  | 27.7 | B (a compound having 3 or more and less than 10 is denoted as B) | B (a compound having 3 or more and less than 10 is denoted as B)
